Assay results from the supplement of paper PMC10307832.

Assays:
Assay in all cases: relative viability (nuclei count vs DMSO), 5 days (fraction); higher = more cells survive
NCI-H1666 = system: NCI-H1666
In short: (§1)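 Relative viability divides the nuclei count in treated wells by that in vehicle wells. Lung cancer cell lines were seeded in 1536-well plates, dosed by pin tool the next day, and fixed and stained after 5 days in one step with final 0.05% Triton X-100, 1% formaldehyde and 1 ug/ml Hoechst. Dosing was a single drug or a fixed anchor-drug dose plus five library-drug doses (not always all listed) in √10 steps, and values are medians of duplicate plates imaged at 4×.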

SK-LU-1 = system: SK-LU-1
In short: as §1

NCI-H661 = system: NCI-H661
In short: as §1

NCI-H1648 = system: NCI-H1648
In short: as §1

NCI-H1623 = system: NCI-H1623
In short: as §1

NCI-H1944 = system: NCI-H1944
In short: as §1

NCI-H596 = system: NCI-H596
In short: as §1

PC-14 = system: PC-14
In short: as §1

SMILES: Cc1cn(-c2cc(NC(=O)c3ccc(C)c(Nc4nccc(-c5cccnc5)n4)c3)cc(C(F)(F)F)c2)cn1 [Nilotinib] + COc1cccc2cc(-c3nc([C@H]4CC[C@H](C(=O)O)CC4)n4ncnc(N)c34)[nH]c12 [OSI-027] (partner 0.5 µM)
- relative viability (NCI-H1666; first compound 0.001 µM): 0.823
- relative viability (NCI-H1666; first compound 0.003162 µM): 0.846
- relative viability (NCI-H1666; first compound 0.01 µM): 0.879
- relative viability (NCI-H1666; first compound 0.03162 µM): 0.753
- relative viability (NCI-H1666; first compound 0.1 µM): 0.899
- relative viability (SK-LU-1; first compound 0.001 µM): 0.313
- relative viability (SK-LU-1; first compound 0.003162 µM): 0.322
- relative viability (SK-LU-1; first compound 0.01 µM): 0.302
- relative viability (SK-LU-1; first compound 0.03162 µM): 0.258
- relative viability (SK-LU-1; first compound 0.1 µM): 0.265
- relative viability (NCI-H661; first compound 0.001 µM): 0.672
- relative viability (NCI-H661; first compound 0.003162 µM): 0.69
- relative viability (NCI-H661; first compound 0.03162 µM): 0.538
- relative viability (NCI-H661; first compound 0.1 µM): 0.634
- relative viability (NCI-H1648; first compound 0.003162 µM): 0.257
- relative viability (NCI-H1648; first compound 0.01 µM): 0.257
- relative viability (NCI-H1648; first compound 0.03162 µM): 0.256
- relative viability (NCI-H1648; first compound 0.1 µM): 0.253
- relative viability (NCI-H1623; first compound 0.001 µM): 0.395
- relative viability (NCI-H1623; first compound 0.003162 µM): 0.422
- relative viability (NCI-H1623; first compound 0.01 µM): 0.444
- relative viability (NCI-H1623; first compound 0.03162 µM): 0.432
- relative viability (NCI-H1623; first compound 0.1 µM): 0.423
- relative viability (NCI-H1944; first compound 0.001 µM): 0.418
- relative viability (NCI-H1944; first compound 0.003162 µM): 0.407
- relative viability (NCI-H1944; first compound 0.01 µM): 0.367
- relative viability (NCI-H1944; first compound 0.03162 µM): 0.324
- relative viability (NCI-H596; first compound 0.001 µM): 0.725
- relative viability (NCI-H596; first compound 0.003162 µM): 0.655
- relative viability (NCI-H596; first compound 0.01 µM): 0.57
- relative viability (NCI-H596; first compound 0.03162 µM): 0.306
- relative viability (NCI-H596; first compound 0.1 µM): 0.415
- relative viability (PC-14; first compound 0.001 µM): 0.611
- relative viability (PC-14; first compound 0.003162 µM): 1.03
- relative viability (PC-14; first compound 0.01 µM): 0.846
- relative viability (PC-14; first compound 0.03162 µM): 0.312
- relative viability (PC-14; first compound 0.1 µM): 0.254

SMILES: Cc1cn(-c2cc(NC(=O)c3ccc(C)c(Nc4nccc(-c5cccnc5)n4)c3)cc(C(F)(F)F)c2)cn1 [Nilotinib] + Cc1cc(Nc2cc(N3CCN(C)CC3)nc(Sc3ccc(NC(=O)C4CC4)cc3)n2)n[nH]1 [Tozasertib] (partner 0.1 µM)
- relative viability (NCI-H1666; first compound 0.001 µM): 0.493
- relative viability (NCI-H1666; first compound 0.003162 µM): 0.566
- relative viability (NCI-H1666; first compound 0.01 µM): 0.531
- relative viability (NCI-H1666; first compound 0.03162 µM): 0.518
- relative viability (NCI-H1666; first compound 0.1 µM): 0.556
- relative viability (SK-LU-1; first compound 0.001 µM): 0.304
- relative viability (SK-LU-1; first compound 0.003162 µM): 0.292
- relative viability (SK-LU-1; first compound 0.01 µM): 0.287
- relative viability (SK-LU-1; first compound 0.03162 µM): 0.293
- relative viability (SK-LU-1; first compound 0.1 µM): 0.286
- relative viability (NCI-H661; first compound 0.001 µM): 0.346
- relative viability (NCI-H661; first compound 0.003162 µM): 0.357
- relative viability (NCI-H661; first compound 0.01 µM): 0.364
- relative viability (NCI-H661; first compound 0.03162 µM): 0.382
- relative viability (NCI-H661; first compound 0.1 µM): 0.355
- relative viability (NCI-H1648; first compound 0.003162 µM): 0.395
- relative viability (NCI-H1648; first compound 0.01 µM): 0.389
- relative viability (NCI-H1648; first compound 0.03162 µM): 0.403
- relative viability (NCI-H1648; first compound 0.1 µM): 0.383
- relative viability (NCI-H1623; first compound 0.001 µM): 0.415
- relative viability (NCI-H1623; first compound 0.003162 µM): 0.528
- relative viability (NCI-H1623; first compound 0.01 µM): 0.457
- relative viability (NCI-H1623; first compound 0.03162 µM): 0.401
- relative viability (NCI-H1623; first compound 0.1 µM): 0.885
- relative viability (NCI-H1944; first compound 0.001 µM): 0.248
- relative viability (NCI-H1944; first compound 0.003162 µM): 0.3
- relative viability (NCI-H1944; first compound 0.01 µM): 0.248
- relative viability (NCI-H1944; first compound 0.03162 µM): 0.197
- relative viability (NCI-H596; first compound 0.001 µM): 0.799
- relative viability (NCI-H596; first compound 0.003162 µM): 0.972
- relative viability (NCI-H596; first compound 0.01 µM): 1.01
- relative viability (NCI-H596; first compound 0.03162 µM): 0.619
- relative viability (NCI-H596; first compound 0.1 µM): 0.68
- relative viability (PC-14; first compound 0.001 µM): 0.682
- relative viability (PC-14; first compound 0.003162 µM): 0.485
- relative viability (PC-14; first compound 0.01 µM): 0.53
- relative viability (PC-14; first compound 0.03162 µM): 0.519
- relative viability (PC-14; first compound 0.1 µM): 0.615

SMILES: CN1CCN(CCOc2cc(OC3CCOCC3)c3c(Nc4c(Cl)ccc5c4OCO5)ncnc3c2)CC1 [Saracatinib] + COc1cccc2cc(-c3nc([C@H]4CC[C@H](C(=O)O)CC4)n4ncnc(N)c34)[nH]c12 [OSI-027] (partner 0.5 µM)
- relative viability (NCI-H1666; first compound 0.02 µM): 0.914
- relative viability (NCI-H1666; first compound 0.2 µM): 0.863
- relative viability (NCI-H1666; first compound 0.6325 µM): 1.2
- relative viability (NCI-H1666; first compound 2 µM): 1.07
- relative viability (SK-LU-1; first compound 0.02 µM): 0.33
- relative viability (SK-LU-1; first compound 0.2 µM): 0.28
- relative viability (SK-LU-1; first compound 0.6325 µM): 0.245
- relative viability (SK-LU-1; first compound 2 µM): 0.172
- relative viability (NCI-H661; first compound 0.02 µM): 0.707
- relative viability (NCI-H661; first compound 0.2 µM): 0.655
- relative viability (NCI-H661; first compound 0.6325 µM): 0.502
- relative viability (NCI-H661; first compound 2 µM): 0.467
- relative viability (NCI-H1648; first compound 0.02 µM): 0.265
- relative viability (NCI-H1648; first compound 0.6325 µM): 0.262
- relative viability (NCI-H1648; first compound 2 µM): 0.283
- relative viability (NCI-H1623; first compound 0.02 µM): 0.441
- relative viability (NCI-H1623; first compound 0.2 µM): 0.388
- relative viability (NCI-H1623; first compound 0.6325 µM): 0.404
- relative viability (NCI-H1623; first compound 2 µM): 0.357
- relative viability (NCI-H1944; first compound 0.02 µM): 0.43
- relative viability (NCI-H1944; first compound 0.6325 µM): 0.324
- relative viability (NCI-H1944; first compound 2 µM): 0.274
- relative viability (NCI-H596; first compound 0.02 µM): 0.721
- relative viability (NCI-H596; first compound 0.2 µM): 0.429
- relative viability (NCI-H596; first compound 0.6325 µM): 0.623
- relative viability (NCI-H596; first compound 2 µM): 0.403
- relative viability (PC-14; first compound 0.02 µM): 0.81
- relative viability (PC-14; first compound 0.2 µM): 0.406
- relative viability (PC-14; first compound 0.6325 µM): 0.151
- relative viability (PC-14; first compound 2 µM): 0.0888

SMILES: CN1CCN(CCOc2cc(OC3CCOCC3)c3c(Nc4c(Cl)ccc5c4OCO5)ncnc3c2)CC1 [Saracatinib] + Cc1cc(Nc2cc(N3CCN(C)CC3)nc(Sc3ccc(NC(=O)C4CC4)cc3)n2)n[nH]1 [Tozasertib] (partner 0.1 µM)
- relative viability (NCI-H1666; first compound 0.02 µM): 0.648
- relative viability (NCI-H1666; first compound 0.2 µM): 0.607
- relative viability (NCI-H1666; first compound 0.6325 µM): 0.66
- relative viability (NCI-H1666; first compound 2 µM): 0.625
- relative viability (SK-LU-1; first compound 0.02 µM): 0.354
- relative viability (SK-LU-1; first compound 0.2 µM): 0.231
- relative viability (SK-LU-1; first compound 0.6325 µM): 0.172
- relative viability (SK-LU-1; first compound 2 µM): 0.132
- relative viability (NCI-H661; first compound 0.02 µM): 0.36
- relative viability (NCI-H661; first compound 0.2 µM): 0.308
- relative viability (NCI-H661; first compound 0.6325 µM): 0.342
- relative viability (NCI-H661; first compound 2 µM): 0.328
- relative viability (NCI-H1648; first compound 0.02 µM): 0.629
- relative viability (NCI-H1648; first compound 0.6325 µM): 0.813
- relative viability (NCI-H1648; first compound 2 µM): 0.362
- relative viability (NCI-H1623; first compound 0.02 µM): 0.447
- relative viability (NCI-H1623; first compound 0.2 µM): 0.443
- relative viability (NCI-H1623; first compound 0.6325 µM): 0.456
- relative viability (NCI-H1623; first compound 2 µM): 0.348
- relative viability (NCI-H1944; first compound 0.02 µM): 0.23
- relative viability (NCI-H1944; first compound 0.6325 µM): 0.227
- relative viability (NCI-H1944; first compound 2 µM): 0.169
- relative viability (NCI-H596; first compound 0.02 µM): 0.8
- relative viability (NCI-H596; first compound 0.2 µM): 0.847
- relative viability (NCI-H596; first compound 0.6325 µM): 1.07
- relative viability (NCI-H596; first compound 2 µM): 0.708
- relative viability (PC-14; first compound 0.02 µM): 0.603
- relative viability (PC-14; first compound 0.2 µM): 0.514
- relative viability (PC-14; first compound 0.6325 µM): 0.475
- relative viability (PC-14; first compound 2 µM): 0.209
